The record followed here is publication PMC6218249 (Bioorganic & medicinal chemistry letters, 2018).

Molecules are shown by their SMILES. Values after ≈ are worked out from the molar mass of the structure shown.

A word on the solubility: it is the concentration that dissolves in the medium under given conditions. A lower solubility goes with a poorly soluble substance. By half-life is commonly meant the time needed for the level to fall by half in the phase considered.

The nature of data set [1]: PAMPA permeability. For orientation: The PAMPA barrier holds no transporters, so it reflects passive diffusion.
Data set [2] in a line: physchem. To be noted: pH 7.4.
Data set [3] can be described thus: In vivo pharmacokinetics in C57BL/6 mice. As to conditions: C57BL/6, mouse, plasma, other: intravenous and oral, 3 mg/kg.

With `CN(C)CCOc1ccc(-c2cnc3c(-c4ccc(S(N)(=O)=O)c5ccccc45)cnn3c2)cn1` [Compound 13], the “PAMPA (x10^−6 cm/s)” value in data set [1] is 8.8 x10^−6 cm/s. On the same count and under the same terms, the value for `NS(=O)(=O)c1ccc(-c2cnn3cc(-c4ccc(OCCN5CCCCC5)nc4)cnc23)c2ccccc12` [Compound 14] was 364.7 x10^−6 cm/s; that for `NS(=O)(=O)c1ccc(-c2cnn3cc(-c4ccc(N5CCNCC5)nc4)cnc23)c2ccccc12` [Compound 12] was 8.3 x10^−6 cm/s. As to `CC(c1ccc(-c2cnc3c(-c4ccc(S(N)(=O)=O)c5ccccc45)cnn3c2)cc1)N1CCCC1` (centres unmarked) [Compound 23], in data set [1], the “PAMPA (x10^−6 cm/s)” value was 1116.0 x10^−6 cm/s. The compound also yielded a solubility in data set [2] of 14 µM (≈ 6.97 µg/mL). This compound also had a half-life in data set [3] of 3 to 4 h. As to `NS(=O)(=O)c1ccc(-c2cnn3cc(-c4ccc(CN5CCCC5)cc4)cnc23)c2ccccc12` [Compound 22], the “PAMPA (x10^−6 cm/s)” value in data set [1] was 467 x10^−6 cm/s.

Turning to `CC(C)(CN1CCCCC1)Oc1ccc(-c2cnc3c(-c4ccc(S(N)(=O)=O)c5ccccc45)cnn3c2)cc1` [Compound 17], in data set [1], the “PAMPA (x10^−6 cm/s)” value is recorded as 1920.5 x10^−6 cm/s. Same read-out and setting: in the case of `NS(=O)(=O)c1ccc(-c2cnn3cc(-c4ccc(C5CCNCC5)cc4)cnc23)c2ccccc12` [Compound 15] it was 78.6 x10^−6 cm/s. Same read-out and setting: the value for `NS(=O)(=O)c1ccc(-c2cnn3cc(-c4ccc(OCCN5CCCC5)cc4)cnc23)c2ccccc12` [Compound 18] was 317 x10^−6 cm/s. Turning to `CC(C)(N)c1ccc(-c2cnc3c(-c4ccc(S(N)(=O)=O)c5ccccc45)cnn3c2)cc1` [Compound 20], the “PAMPA (x10^−6 cm/s)” value in data set [1] was 9.4 x10^−6 cm/s.
